Measurements published in patent US8703790B2, “Bis [O-(14-benzoylaconine-8-yl)] esters” (priority 2008, dated 2014).

Tests used:
[1] = Partition coefficient log D (pH 7.4), micro HPLC method, n-octanol/phosphate buffer; type: physicochemical; settings: n-octanol/phosphate buffer pH 7.4
Protocol: The relative log D (pH 7.4) in this study was assessed by the micro HPLC method which is disclosed in A microscale HPLC method for the evaluation of octanol-water partition coefficients in a series of new 2-amino-2oxazolines Pehourcq, F.; Thomas, J.; Jarry, C., J. Liq. Chromatogr. Relat. Technol. (2000), 23, 443-453.
These determinations were performed with a chromatographic apparatus (Spectra Series, San Jose, USA). A reversed phase column was used: a Stability RP18 (4.6×150 mm; 5 μm particle size) with a mobile phase consisting of acetonitrile (+1‰ trifluoroacetic acid)−water (+1‰ trifluoroacetic acid) (40:60 v/v).
The compound was partitioned between n-octanol (HPLC grade) and phosphate buffer (pH=7.4). Octanol was presatured with buffer, and conversely. An amount of 1 mg of the compound was dissolved in an adequate volume of methanol in order to achieve 1 mg/mL stock solutions. Then, an appropriate aliquot of this methanolic solution was dissolved in buffer to obtain final concentration of 100 μg/mL. Under the above described chromatographic conditions, 20 μL of this aqueous phase was injected into the chromatograph, leading to the determination of a peak area before partitioning (W0).
In screw-capped tubes, 2000 μL of the aqueous phase (Vag) was then added to 10 μL of n-octanol (Voct) at pH=7.4. […] Log D was calculated from the formula: log D=log [(W0−W1)Vaq/W1Voct].

[2] = test system: MCF-7 (breast cancer); assay: In vitro cytotoxicity test (MTT) against human tumour cell line MCF-7; type: cell-based; settings: MCF-7, 24 h contact, 48 h re-growth
Protocol: (§1) Human tumour cell lines A549 (lung cancer), HCT-15 (colon cancer) and MCF-7 (breast cancer) have been obtained from the Developmental Therapeutics Program of the National Cancer Institute (Rockville, Md., USA). Cells were routinely grown with RPMI 1640 medium supplemented with 10% foetal calf serum, both obtained from Biochrom AG (Berlin, Germany). They were grown on Petri dishes (Nunc, Denmark) at 37° C. in a humidified atmosphere containing 5% CO2. Cells were replicated every 4 days and the medium changed once in-between.
(§2) Cytotoxicity has been evaluated on exponentially growing cells grown for 24 h in presence of the compounds to be tested. Briefly, 4000 cells were seeded in 96-well plates with 200 μL of complete medium; 24 hours later the medium was supplemented with a series of different concentrations of compounds and the contact maintained for 24 h. Compounds were dissolved in pure water and sterilised using polycarbonate membrane filters of 0.22 μm (Millipore, Molsheim, France). The cells were then allowed to re-grow for 48 hours; viable and metabolically active cells were quantitatively estimated by coloration with the MTT dye (1-(4,5-dimethylthyazol-2-yl)-3,5-diphenylformazan), Sigma-Aldrich Chimie, Saint-Quentin-Fallavier, France). The amount of substance allowing a 50% decrease in cell numbers is indicative of the cytotoxicity and represents the IC50 of compound.

[3] = test system: MCF-7; assay: Cell cycle arrest, propidium iodide flow cytometry, MCF-7; type: cell-based, human
Protocol: (§3) 10^6 Cells of A549, HCT-15 and MCF-7 cell lines have been seeded in Petri dishes with RPMI-1640 medium. 24 h later, SDD has been dissolved in water at a concentration of 20 μM and was directly added to the culture medium. Contact was maintained for 72 h. Then, cells have been detached by trypsinization, collected and rinsed by PBS and counted on hemocytometer. Cells were centrifuged for 5 min at 1500 rpm, then resuspended in a defined volume of PBS to obtain 2.5×10^6 cell/mL. 100 μL of cell suspension was digested to nuclei by trypsin for 10 min. Then, a solution containing trypsin inhibitor and RNAse was added to cell suspension and left for 10 min. Finally, cells were stained by propidium iodide and were analysed by flow-cytometry apparatus. Distribution of cells among the different phases of the cycle was determined by the procedure disclosed in: A detergent-trypsin method for preparation of nuclei for flow cytometric DNA analysis. Vindelov, L.; Christensen, I.; Nissen, N.; Cytometry (1983), 3, 323-327.
(§4) • G0G1: cell in the phase of GOG1 • G2M: cells in the phase of G2M • S: cells in the phase of DNA synthesis • Sub G1: apoptotic cells • SUP G2M: diploidic cells

[4] = test system: HCT-15; assay: Cell cycle arrest, propidium iodide flow cytometry, HCT-15; type: cell-based, human
Protocol: as §3, §4

[5] = test system: A549; assay: Cell cycle arrest, propidium iodide flow cytometry, A549; type: cell-based, human
Protocol: as §3, §4

[6] = test system: HCT-15 (colon cancer); assay: In vitro cytotoxicity test (MTT) against human tumour cell line HCT-15; type: cell-based; settings: HCT-15, 24 h contact, 48 h re-growth
Protocol: as §1, §2

[7] = test system: female Swiss mice; assay: Acute systemic toxicity, main test, intravenous; type: in vivo, mouse
Protocol: The SDD was administered by intravenous route at the dose of 50 mg/kg body weight to a group of 5 female Swiss mice. The experimental protocol was established from the International standard NF EN ISO 10993-11 concerning biological evaluation of medical devices: “Tests for systemic toxicity”.

[8] = MCF-7, SDD 20 μM, 72 h, percentage of total cell population
[9] = HCT-15, SDD 20 μM, 72 h, percentage of total cell population
[10] = A549, SDD 20 μM, 72 h, percentage of total cell population
[11] = 50 mg/kg iv, 1 hour after administration

## CCN1C[C@]2(COC)[C@H](O)C[C@H](OC)[C@]34C1[C@H]([C@H](OC)[C@H]23)[C@]1(OC(=O)CCCCCCC(=O)O[C@]23[C@H]5[C@@H](OC(=O)c6ccccc6)[C@](O)(C[C@H]5[C@@]56C7[C@@H]2[C@H](OC)[C@@H]5[C@](COC)(CN7CC)[C@H](O)C[C@@H]6OC)[C@@H](OC)[C@@H]3O)[C@H]2[C@@H](OC(=O)c3ccccc3)[C@](O)(C[C@H]24)[C@@H](OC)[C@@H]1O [SDD, bis[O-(14-benzoylaconine-8-yl)]-suberate]
[1]
  log D (pH 7.4): 2.86
[2]
  IC50: 3.7 µM
[3]; MCF-7, 20 μM
  accumulation of cells in the G2M and S phases: moderate accumulation
[3]; [8]
  ALL %: 100%
  G0G1 %: 58.73%
  G2M %: 16.96%
  S %: 21.44%
  SUP G2M % (diploidic cells): 1.72%
  SubG1 % (apoptotic cells): 2.05%
[3]; MCF-7, SDD concentration 5 times higher than IC50
  cell distribution in the cycle: not altered
[3]; MCF-7, SDD, survival cells
  Percentage of survival cells, G0G1 %: 60.46%
  Percentage of survival cells, G2M %: 17.46%
  Percentage of survival cells, S %: 22.08%
[4]; HCT-15, 20 μM
  accumulation of cells in the G2M and S phases: significant accumulation
  numbers of apoptotic cells (Sub G1): significantly increased
[4]; HCT-15, SDD 20 μM
  increase of number of cells arrested at S phase as compared to control: more than 100%
  increase of number of cells in the G2M phase as compared to control: 75%
[4]; [9]
  ALL %: 100%
  G0G1 %: 30.67%
  G2M %: 15.72%
  S %: 26.35%
  SUP G2M % (diploidic cells): 2.59%
  SubG1 % (apoptotic cells): 23.65%
[4]; HCT-15, SDD, survival cells
  Percentage of survival cells, G0G1 %: 42.16%
  Percentage of survival cells, G2M %: 21.61%
  Percentage of survival cells, S %: 36.23%
[5]; A549, 20 μM
  accumulation of cells in the G2M and S phases: significant accumulation
[5]; A549, SDD 20 μM
  increase of number of cells arrested at S phase as compared to control: more than 100%
  increase of number of cells in the G2M phase as compared to control: 85%
[5]; [10]
  ALL %: 100%
  G0G1 %: 53.04%
  G2M %: 16.42%
  S %: 25.49%
  SUP G2M % (diploidic cells): 2.09%
  SubG1 % (apoptotic cells): 3.34%
[5]; A549, SDD concentration close to IC50
  cell distribution in the cell cycle: altered
[5]; A549, SDD, survival cells
  Percentage of survival cells, G0G1 %: 55.86%
  Percentage of survival cells, G2M %: 17.29%
  Percentage of survival cells, S %: 26.84%
[6]
  IC50: 3.7 µM
[7]; 50 mg/kg body weight iv, 5 female Swiss mice
  mortality: No mortality
[7]; [11]
  decrease of the righting reflex (animals affected): 2/5
  decrease of the spontaneous activity (animals affected): 5/5
  eyes partly closed (animals affected): 2/5
[7]; 50 mg/kg iv, end of the study
  macroscopical examination: necrosis at the level of the tail (animals affected): 3/5
[7]; 50 mg/kg iv, first day to fourteenth day
  local finding at the tails: oedema at the level of the tails
[7]; 50 mg/kg iv, throughout the study
  body weight evolution: remained normal
[7]; mouse, intravenous route
  LD50: above 50 mg/kg of body weight
